From patent US20220213198A1, “METHOD OF TREATMENT” (The Council of the Queensland Institute of Medical Research, priority 2019, published 2022)

Key:
[1] = biological target: T1, surface MR1 on mouse tumor cell lines (Mus musculus, UniProt Q8HWB0); assay: MR1 surface expression on mouse tumor cell lines by flow cytometry; assay type: cell-based; details: for MR1 cell surface expression: 100 nM, 4 hours
T1 construct: endogenous in cells
Procedure: FIG. 2. Up-regulation of MR1 on B16F10 cells increases lung metastases that is dependent on MAIT cells. (A) The schematic and timeline of expanding MAIT cells from splenocytes derived from C57BL/6 WT mice with IL-2 and 5-OP-RU, for sorting and adoptive transfer into tumor-bearing mice. (B, C) Groups of WT or MR1^−/− or Rag2cγ^−/− mice (n=5-6/group) were injected i.v. with (B) 1×10^5 or (C) 1×10^4 B16F10 melanoma cells. In some groups, sorted MAIT or T conventional cells (cT) (non-MAIT αβ^+ T cells) (2×10^5 cells/mouse) from C57BL/6 (B) WT or (C) TCRδ^−/− mice were i.v. injected into the indicated groups of mice one day before tumor inoculation. (C) One group of mice received i.v injection of media alone as a control. (B, C) On day 14 relative to tumor cell inoculation, lungs were harvested and the metastatic burden was quantified by counting colonies on the lung surface. Data presented as mean±SEM. (D) B16F10 or LWT1 melanoma cells were stimulated in vitro with DMSO or 5-OP-RU (100 nM) for 4 hours before cell surface MR1 expression was determined by flow cytometry. Groups of C57BL/6 WT or MR1^−/− mice (n=5-6/group) were i.v. injected with (E) 1×10^5 B16F10 or (F) 5×10^5 LWT1 cells melanoma cells pulsed with DMSO or 5-OP-RU (100 nM, 4 hours). Fourteen days later relative to tumor cell inoculation, lungs were harvested and the metastatic burden was quantified by counting colonies on the lung surface. Data presented as mean±SEM. Experiments performed once for (B, C, F) and three times for (D, E) with one representative experiment shown. Significant differences between groups as indicated by crossbars were determined using a one-way ANOVA followed by Tukey's post-hoc test (B, E, F), *p<0.05, **p<0.01, ****p<0.0001
Naïve or tumor-bearing lung single-cell suspensions were generated as previously described (Blake et al., 2016) and incubated with anti-CD16/32 (2.4G2) to block Fc receptors on ice prior to surface staining with the antibodies. The following antibodies were used for FACs analysis: anti-CD45.2 (104), anti-TCRβ (H57-597), anti-NK1.1 (PK136), anti-NKp46 (29A1.4), anti-CD45R (B220, RA3-6B2), anti-F4/80 (BM8), anti-CD69 (H1.2F3) (all from BioLegend, eBioscience), and MR1 tetramers. For intracellular cytokine staining, cells were surface stained as described above and then fixed and permeabilized with a cytofix/cytoperm kit (BD Biosciences) followed by staining with anti-IFNγ (XMG1.2), anti-TNF (MP6-XT22), anti-IL-17A (TC11-18H10.1) or isotype (eBio299Arm) antibody (all from BioLegend). All data were collected on a Fortessa 4 flow cytometer (BD Biosciences) and analyzed with FlowJo v10 software (TreeStar, Inc.).
MR1 mRNA transcripts are present in different tissues and cell lines from mice and humans. […] In contrast, whether mouse tumor cell lines express MR1 has not previously been examined. […] Basally, the level of MR1 was almost undetectable on the surface of all tumor cell lines examined (FIG. 2D). […] The kinetics of MR1 upregulation on B16F10 cells was similar to what was previously reported for human C1R cells (B-cell lymphoblastoid cell line) (McWilliam et al., 2016). […] Next, the impact of up-regulation of MR1 on B16F10 or LWT1 prior to i.v injection to WT or MR1−/− mice on the number of lung metastases was assessed.

MAIT cells = assay: Ex vivo MAIT cell activation and cytokine profile in tumor-bearing lungs; parameters: species or system mouse; details: lungs of mice injected with treated vs DMSO-treated B16F10, day 5
Procedure: FIG. 4. Upregulation of MR1 on B16F10 activates MAIT cells to suppress NK cell effector function through IL-17. (A) Schematic to analyze MAIT or NK cell effector function in the lungs of C57BL/6 WT or MR1^−/− mice injected with 5-OP-RU- or DMSO-stimulated B16F10 melanoma cells. On day 5 relative to tumor inoculation, lungs were harvested and stimulated with PMA/ionomycin plus protein transport inhibitors for 4 hours and MAIT or NK cell function was assessed by flow cytometry. (B) The proportion of CD69^+ MAIT cells amongst total MAIT cells (B220^− F4/80^− MR1-5-OP-RU tetramer^+ TCRβ^+) in naïve or tumor-bearing lungs. Data presented as mean±SEM. (C) Representative dot plot of IL-17 expression by MAIT cells. The (D) proportion of IL-17^+ MAIT cells amongst total MAIT cells in the lungs of naïve and tumor-bearing mice as indicated. Data presented as mean±SEM. (E) Representative dot plot of TNF expression by MAIT cells. The (F) proportion of TNF MAIT cells and (G) IFNγ^+ MAIT cells amongst total MAIT cells in the lungs of naïve and tumor-bearing mice as indicated. (H, I) On day 5 relative to tumor inoculation, lungs were harvested (n=6/group) and stimulated with PMA/ionomycin plus protein transport inhibitors for 3 hours and NK cell function was assessed by flow cytometry. The proportion of IFNγ^+ NK cells and CD107a^+ NK cells amongst total NK cells (NKp46^+ NK1.1^+ TCRβ^− CD45.2^+) in tumor-bearing C57BL/6 WT or IL-17^−/− mice. Data presented as mean±SEM. (J) Groups of WT or MR1^−/− mice (n=4-6/group) were injected i.v. with 1×10^5 B16F10 melanoma cells. In some groups, sorted MAIT cells (2×10^5 cells/mouse) from C57BL/6 WT or IL-17A^−/− mice were i.v. injected into the indicated groups of mice one day before tumor inoculation. On day 14 relative to tumor cell inoculation, lungs were harvested and the metastatic burden was quantified by counting colonies on the lung surface. […] Significant differences between groups as indicated by crossbars were determined using a one-way ANOVA followed by Tukey's post-hoc test (B, D, F, J), or a Mann-Whitney test (H, I), *p<0.05, **p<0.01, ***p<0.001, ****p<0.0001.
Naïve or tumor-bearing lung single-cell suspensions were generated as previously described (Blake et al., 2016) and incubated with anti-CD16/32 (2.4G2) to block Fc receptors on ice prior to surface staining with the antibodies. […] All data were collected on a Fortessa 4 flow cytometer (BD Biosciences) and analyzed with FlowJo v10 software (TreeStar, Inc.).
Single cell suspensions from lungs of the indicated groups were incubated in a 96-well U-bottom plate in complete RPMI 1640 media. […] Briefly, anti-CD107a (1D4B, BioLegend) antibody was added to single cell suspension during the stimulation period before these cells were surface stained and analyzed by flow cytometry.

- lowest ligand concentration that upregulated MR1 ([1]; B16F10, dose titration): 10 nM
- MR1 cell surface expression ([1]; B16F10 melanoma cells): substantially upregulated
- MR1 cell surface expression ([1]; LWT1 melanoma cells): substantially upregulated
- MR1 cell surface expression ([1]; MC38 parental or OVA, HcMel3, HcMel12, SM1WT1, MCA1956 cells): upregulated to a varying extent
- MR1 cell surface expression ([1]; RM-1, 4T1.2 or 3LL carcinoma cells): not upregulated
Compound: CC(=O)C=Nc1c(NC[C@H](O)[C@H](O)[C@H](O)CO)[nH]c(=O)[nH]c1=O [5-OP-RU]
- proportion of MAIT cells producing IFNγ (MAIT cells): did not change
- proportion of MAIT cells that expressed CD69 (MAIT cells): increased proportion
- proportion of MAIT cells that expressed IL-17A (MAIT cells): increased proportion
- proportion of MAIT cells that expressed TNF (MAIT cells): increased proportion
